In this experiment the test system is conditional CPS1 knock out mouse model. Description: sAAV efficacy in vivo in conditional CPS1 knock out mouse model (floxed Cps1 removed by AAV-Cre). To be noted: sAAV-treated mice additionally treated with n-carglumic acid. The text has this:
To illustrate the ability of sAAVs to treat CPS1 deficiency, sAAVs encoding human codon optimized CPS1 (hcoCPS1) driven by the constitutive CAG promoter were generated and tested in a conditional CPS1 knock out mouse model (see, e.g. Khoja et al., Molecular Genetics and Metabolism. 2018 Aug. 1; 124(4):243-253). […] Currently, there is no effective therapy for human patients with CPS1 disorders. Our data from this gene therapy model in mice having knocked out endogenous CPS1 expression provides evidence that this treatment can address this unmet need for these patients.
In illustrative embodiments of the invention, to test sAAV efficacy in vivo, a conditional CPS1 knock out mouse model was used. These mice contain biallelic floxed Cps1 which is removed by treatment with an AAV expressing Cre recombinase (AAV-Cre). […] Treatment with the small molecule n-carglumic acid, an analog of NAG, the allosteric activator of CPS1, further extended lifespan (all mice >120 days; p<0.01) and maintained near normal plasma ammonia (baseline: 138.87 μM±86.5; post-treatment: 217.8 μM±69.9; p=0.15).

The text below walks through data of patent US12281323B2, “Treatment for restoring ureagenesis in carbamoyl phosphate synthetase 1 deficiency” (The Regents of the University of California, priority 2019, dated 2025).

A value given as a limit tells only on which side of the number the result lay.

In turn, `NC(=O)N[C@@H](CCC(=O)O)C(=O)O` [n-carglumic acid] yielded a lifespan (all mice, p<0.01) greater than 120 days. For the setting “±69.9, baseline 138.87 μM±86.5, p=0.15”, this compound had a plasma ammonia post-treatment of 217.8 µM.
